ChEMBL document CHEMBL2390923, “Synthesis of 7-oxabicyclo[2.2.1]hept-5-en-2-yl derivatives and their screening for antimicrobial and antioxidant properties” (2013)
In brackets after ≈: the same amount, converted by molar mass.

Experiments:
Assay type in all cases: functional
[1] = tested on: Vibrio cholerae; assay: Antibacterial activity against Vibrio cholerae at 125 mg/ml after 24 hrs by well diffusion assay; conditions: read-out: DIZ
[2] = tested on: Vibrio cholerae; assay: Antibacterial activity against Vibrio cholerae after 18 to 24 hrs by microdilution broth assay
[3] = tested on: Vibrio cholerae; assay: Antibacterial activity against Vibrio cholerae at 150 mg/ml after 24 hrs by well diffusion assay; conditions: read-out: DIZ
[4] = tested on: Bacillus subtilis; assay: Antibacterial activity against Bacillus subtilis after 18 to 24 hrs by microdilution broth assay
[5] = tested on: Staphylococcus aureus; assay: Antibacterial activity against Staphylococcus aureus at 125 mg/ml after 24 hrs by well diffusion assay; conditions: read-out: DIZ
[6] = tested on: Staphylococcus aureus; assay: Antibacterial activity against Staphylococcus aureus at 150 mg/ml after 24 hrs by well diffusion assay; conditions: read-out: DIZ
[7] = tested on: Vibrio cholerae; assay: Antibacterial activity against Vibrio cholerae at 100 mg/ml after 24 hrs by well diffusion assay; conditions: read-out: DIZ
[8] = tested on: Klebsiella pneumoniae; assay: Antibacterial activity against Klebsiella pneumoniae after 18 to 24 hrs by microdilution broth assay
[9] = tested on: Staphylococcus aureus; assay: Antibacterial activity against Staphylococcus aureus after 18 to 24 hrs by microdilution broth assay
[10] = tested on: Escherichia coli; assay: Antibacterial activity against Escherichia coli after 18 to 24 hrs by microdilution broth assay
[11] = tested on: Radical scavenging activity; assay: Antioxidant activity assessed as DPPH radical scavenging activity after 30 mins; parameters: concentration or dose not given beside the values
[12] = tested on: Escherichia coli; assay: Antibacterial activity against Escherichia coli at 100 mg/ml after 24 hrs by well diffusion assay; conditions: read-out: DIZ
[13] = tested on: Escherichia coli; assay: Antibacterial activity against Escherichia coli at 150 mg/ml after 24 hrs by well diffusion assay; conditions: read-out: DIZ
[14] = tested on: Klebsiella pneumoniae; assay: Antibacterial activity against Klebsiella pneumoniae at 150 mg/ml after 24 hrs by well diffusion assay; conditions: read-out: DIZ
[15] = tested on: Escherichia coli; assay: Antibacterial activity against Escherichia coli at 125 mg/ml after 24 hrs by well diffusion assay; conditions: read-out: DIZ
[16] = tested on: Staphylococcus aureus; assay: Antibacterial activity against Staphylococcus aureus at 100 mg/ml after 24 hrs by well diffusion assay; conditions: read-out: DIZ
[17] = tested on: Klebsiella pneumoniae; assay: Antibacterial activity against Klebsiella pneumoniae at 100 mg/ml after 24 hrs by well diffusion assay; conditions: read-out: DIZ
[18] = tested on: Klebsiella pneumoniae; assay: Antibacterial activity against Klebsiella pneumoniae at 125 mg/ml after 24 hrs by well diffusion assay; conditions: read-out: DIZ
[19] = tested on: Bacillus subtilis; assay: Antibacterial activity against Bacillus subtilis at 125 mg/ml after 24 hrs by well diffusion assay; conditions: read-out: DIZ
[20] = tested on: Bacillus subtilis; assay: Antibacterial activity against Bacillus subtilis at 100 mg/ml after 24 hrs by well diffusion assay; conditions: read-out: DIZ
[21] = tested on: Bacillus subtilis; assay: Antibacterial activity against Bacillus subtilis at 150 mg/ml after 24 hrs by well diffusion assay; conditions: read-out: DIZ

Structure (SMILES)	MIC [2]	zone of inhibition at 150000 µg/mL [3]	MIC [4]	zone of inhibition at 125000 µg/mL [5]	zone of inhibition at 150000 µg/mL [6]	MIC [8]	MIC [9]	MIC [10]	inhibition [11]	zone of inhibition at 100000 µg/mL [12]	zone of inhibition at 150000 µg/mL [13]	zone of inhibition at 150000 µg/mL [14]	zone of inhibition at 125000 µg/mL [15]	zone of inhibition at 100000 µg/mL [16]	zone of inhibition at 125000 µg/mL [18]	zone of inhibition at 150000 µg/mL [21]	further results
CCC12C=CC(O1)C(C(=O)c1ccccc1)C2c1ccc(OC)cc1 (stereo not drawn)	625 µg/mL (≈ 1870 µM)	17 mm	625 µg/mL (≈ 1870 µM)	11 mm	13 mm	625 µg/mL (≈ 1870 µM)	1250 µg/mL (≈ 3740 µM)	625 µg/mL (≈ 1870 µM)	15.1%	–	–	–	–	–	–	–	zone of inhibition at 125000 µg/mL [1]: 14 mm; zone of inhibition at 100000 µg/mL [7]: 12 mm
Cc1cc(C(C)(C)C)c(O)c(C(C)(C)C)c1	–	–	–	–	–	–	–	–	58.4%	–	–	–	–	–	–	–	–
CCC12C=CC(O1)C(C(=O)c1ccccc1)C2c1ccccc1Br (stereo not drawn)	625 µg/mL (≈ 1630 µM)	–	1250 µg/mL (≈ 3260 µM)	14 mm	16 mm	625 µg/mL (≈ 1630 µM)	1250 µg/mL (≈ 3260 µM)	1250 µg/mL (≈ 3260 µM)	17.7%	11 mm	15 mm	11 mm	14 mm	13 mm	–	–	–
CCC12C=CC(O1)C(C(=O)c1ccccc1)C2c1ccccc1F (stereo not drawn)	625 µg/mL (≈ 1940 µM)	–	1250 µg/mL (≈ 3880 µM)	15 mm	16 mm	625 µg/mL (≈ 1940 µM)	1250 µg/mL (≈ 3880 µM)	1250 µg/mL (≈ 3880 µM)	18.1%	–	12 mm	14 mm	–	13 mm	13 mm	–	zone of inhibition at 100000 µg/mL [17]: 10 mm
CCC12C=CC(O1)C(C(=O)c1ccccc1)C2c1cccc(OC)c1 (stereo not drawn)	625 µg/mL (≈ 1870 µM)	–	625 µg/mL (≈ 1870 µM)	15 mm	17 mm	312 µg/mL (≈ 933 µM)	625 µg/mL (≈ 1870 µM)	625 µg/mL (≈ 1870 µM)	33.4%	13 mm	16 mm	13 mm	15 mm	–	12 mm	–	–
CCC12C=CC(O1)C(C(=O)c1ccccc1)C2c1ccc([N+](=O)[O-])cc1 (stereo not drawn)	1250 µg/mL (≈ 3580 µM)	–	1250 µg/mL (≈ 3580 µM)	–	13 mm	625 µg/mL (≈ 1790 µM)	1250 µg/mL (≈ 3580 µM)	1250 µg/mL (≈ 3580 µM)	21.6%	12 mm	14 mm	–	14 mm	–	–	–	–
CCC12C=CC(O1)C(C(=O)c1ccccc1)C2c1cccc(Br)c1 (stereo not drawn)	625 µg/mL (≈ 1630 µM)	11 mm	312 µg/mL (≈ 814 µM)	12 mm	15 mm	156 µg/mL (≈ 407 µM)	31 µg/mL (≈ 80.9 µM)	312 µg/mL (≈ 814 µM)	23.2%	–	15 mm	14 mm	12 mm	11 mm	12 mm	17 mm	zone of inhibition at 125000 µg/mL [19]: 14 mm; zone of inhibition at 100000 µg/mL [20]: 11 mm
CCC12C=CC(O1)C(C(=O)c1ccc(Br)cc1)C2c1ccccc1 (stereo not drawn)	312 µg/mL (≈ 814 µM)	11 mm	78 µg/mL (≈ 204 µM)	13 mm	17 mm	78 µg/mL (≈ 204 µM)	1250 µg/mL (≈ 3260 µM)	78 µg/mL (≈ 204 µM)	32.6%	12 mm	17 mm	16 mm	16 mm	11 mm	14 mm	17 mm	zone of inhibition at 125000 µg/mL [19]: 14 mm; zone of inhibition at 100000 µg/mL [20]: 12 mm; zone of inhibition at 125000 µg/mL [1]: 10 mm; zone of inhibition at 100000 µg/mL [17]: 11 mm
CCC12C=CC(O1)C(C(=O)c1ccccc1)C2c1ccc(F)cc1 (stereo not drawn)	625 µg/mL (≈ 1940 µM)	–	625 µg/mL (≈ 1940 µM)	13 mm	15 mm	625 µg/mL (≈ 1940 µM)	1250 µg/mL (≈ 3880 µM)	625 µg/mL (≈ 1940 µM)	42.4%	10 mm	13 mm	12 mm	11 mm	–	–	–	–
CCC12C=CC(O1)C(C(=O)c1ccccc1)C2c1ccc(Cl)cc1 (stereo not drawn)	625 µg/mL (≈ 1840 µM)	14 mm	322 µg/mL (≈ 950 µM)	–	13 mm	156 µg/mL (≈ 460 µM)	625 µg/mL (≈ 1840 µM)	312 µg/mL (≈ 921 µM)	35.5%	–	–	15 mm	–	–	11 mm	–	zone of inhibition at 125000 µg/mL [1]: 13 mm; zone of inhibition at 100000 µg/mL [7]: 11 mm
CCC12C=CC(O1)C(C(=O)c1ccccc1)C2c1ccccc1 (stereo not drawn)	1250 µg/mL (≈ 4110 µM)	–	312 µg/mL (≈ 1030 µM)	–	–	4 µg/mL (≈ 13.1 µM)	625 µg/mL (≈ 2050 µM)	312 µg/mL (≈ 1030 µM)	58.9%	–	15 mm	19 mm	14 mm	–	16 mm	18 mm	zone of inhibition at 125000 µg/mL [19]: 16 mm; zone of inhibition at 100000 µg/mL [20]: 12 mm; zone of inhibition at 100000 µg/mL [17]: 13 mm
CCC12C=CC(O1)C(C(=O)c1cccc(Br)c1)C2c1ccccc1 (stereo not drawn)	625 µg/mL (≈ 1630 µM)	12 mm	625 µg/mL (≈ 1630 µM)	–	–	312 µg/mL (≈ 814 µM)	625 µg/mL (≈ 1630 µM)	625 µg/mL (≈ 1630 µM)	36%	–	14 mm	–	12 mm	–	–	–	–
CCC12C=CC(O1)C(C(=O)c1ccccc1)C2c1ccc(Br)cc1 (stereo not drawn)	625 µg/mL (≈ 1630 µM)	12 mm	312 µg/mL (≈ 814 µM)	13 mm	14 mm	156 µg/mL (≈ 407 µM)	156 µg/mL (≈ 407 µM)	312 µg/mL (≈ 814 µM)	30.5%	–	18 mm	12 mm	14 mm	11 mm	11 mm	12 mm	zone of inhibition at 125000 µg/mL [1]: 11 mm
CCC12C=CC(O1)C(C(=O)c1ccccc1)C2c1ccc(C#N)cc1 (stereo not drawn)	1250 µg/mL (≈ 3790 µM)	–	156 µg/mL (≈ 474 µM)	11 mm	13 mm	156 µg/mL (≈ 474 µM)	156 µg/mL (≈ 474 µM)	156 µg/mL (≈ 474 µM)	58.9%	11 mm	16 mm	15 mm	15 mm	–	13 mm	15 mm	zone of inhibition at 125000 µg/mL [19]: 13 mm; zone of inhibition at 100000 µg/mL [20]: 11 mm; zone of inhibition at 100000 µg/mL [17]: 10 mm
